The source of these data is patent US20060183759A1, “Tissue transglutaminase inhibitors” (priority 2004, published 2006).

In experiment [1] the target is T1, transglutaminase 2 (TGase 2) (Homo sapiens, UniProt P21980).
T1 sequence (P21980 1-687): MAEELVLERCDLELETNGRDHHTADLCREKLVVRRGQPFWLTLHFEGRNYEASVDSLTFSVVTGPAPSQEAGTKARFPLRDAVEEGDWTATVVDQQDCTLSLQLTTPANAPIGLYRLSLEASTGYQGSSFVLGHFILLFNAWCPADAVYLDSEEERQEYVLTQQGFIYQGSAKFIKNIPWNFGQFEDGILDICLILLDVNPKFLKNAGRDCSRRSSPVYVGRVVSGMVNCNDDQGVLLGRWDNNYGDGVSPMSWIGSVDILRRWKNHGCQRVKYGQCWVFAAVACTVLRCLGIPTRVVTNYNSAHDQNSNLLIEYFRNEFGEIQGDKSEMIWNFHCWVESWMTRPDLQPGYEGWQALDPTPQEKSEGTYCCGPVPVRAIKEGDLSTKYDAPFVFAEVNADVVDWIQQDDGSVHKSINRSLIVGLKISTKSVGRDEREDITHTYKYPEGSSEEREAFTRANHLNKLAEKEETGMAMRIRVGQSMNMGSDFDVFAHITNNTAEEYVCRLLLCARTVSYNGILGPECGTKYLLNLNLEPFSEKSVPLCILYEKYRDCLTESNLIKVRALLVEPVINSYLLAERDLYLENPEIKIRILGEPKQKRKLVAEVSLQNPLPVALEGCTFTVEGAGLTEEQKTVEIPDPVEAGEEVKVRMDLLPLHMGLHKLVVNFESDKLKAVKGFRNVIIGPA
Briefly: TGase 2 transpeptidase fluorescence assay: incorporation of KXD into N,N-dimethylated-casein (Std and FPC formats). It counts as biochemical. The conditions noted are these: standard format (Std): reactions terminated after 60 min, FI recorded, four-parameter fit.

In experiment [2] the target is T1, transglutaminase 2 (TGase 2). The description is as above. It counts as biochemical. The conditions noted are these: for TGase 2 inhibitory activity, SAR comment in words (relative to parent compound): qualitative comparison. The procedure:
Transpeptidase activity was monitored as the increase in fluorescence intensity (FI) that accompanies incorporation of the dansylated Lys derivative, α-N-Boc-Lys-CH2-CH2-dansyl (KXD), into the protein substrate, N,N-dimethylated-casein (NMC).
Therefore, a method was used in which full progress curves (FPC) were recorded for the TGase-catalyzed reaction of KXD with NMC in the presence of inhibitor (Table 1-4). Reactions were initiated by enzyme addition to a solution of substrate and inhibitor. […] From such progress curves, IC50 values were calculated using the following equation: IC50=[I]/{(vc/vss)−1}. Progress curves recorded at several inhibitor concentrations were used to determine FPC IC50 values (Table 1-4).

The mark [3] stands for this setting: full progress curves (FPC), IC50=[I]/{(vc/vss)−1}, from steady-state velocity, read-out: IC50 (μM, FPC).
Setting [4] is: summary of FPC values, read-out: FPC IC50 values.

Where two headings read alike, the source gives them in different places.

Consider `CCCN1CCc2c(sc3nc(SCC(=O)NN)n(-c4cccc(F)c4)c(=O)c23)C1` [986-49, [3-(3-Fluorophenyl)-4-oxo-7-propyl-3,4,5,6,7,8-hexahydro-9-thia-1,3,7-triazafluoren-2-ylsulfanyl]acetic acid hydrazide], for which, in experiment [1], half-maximal inhibition (IC50) required 6 µM.
`CC(C)c1csc2nc(SCC(=O)NN)n(-c3cccc(F)c3)c(=O)c12` [986-36, [3-(3-Fluorophenyl)-5-isopropyl-4-oxo-3,4-dihydrothieno[2,3-d]pyrimidin-2-ylsulfanyl]acetic acid hydrazide]: the IC50 in experiment [2] (setting [3]) is 0.23 µM. For the same molecule, the “TGase 2 inhibitory activity, SAR comment in words (relative to parent compound)” value in experiment [2] was “no loss in activity”.
Take `CC(C)c1sc2nc(SCC(=O)NN)n(-c3cccc(F)c3)c(=O)c2c1-c1ccccc1F` [986-41, [3-(3-Fluorophenyl)-5-(2-fluorophenyl)-6-isopropyl-4-oxo-3,4-dihydrothieno[2,3-d]pyrimidin-2-ylsulfanyl]acetic acid hydrazide]: in experiment [2] (setting [3]), the half-maximal inhibitory concentration (IC50) worked out at 0.9 µM. For the same molecule, the “TGase 2 inhibitory activity, SAR comment in words (relative to parent compound)” value in experiment [2] is recorded as “detrimental”.
`NNC(=O)CSc1nc2scc(-c3ccccc3)c2c(=O)n1-c1ccc(Cl)cc1` [986-25, [3-(4-Chlorophenyl)-4-oxo-5-phenyl-3,4-dihydrothieno[2,3-d]pyrimidin-2-ylsulfanyl]acetic acid hydrazide]: in experiment [1], inhibition was half-maximal at 1.8 µM (IC50).
On to `O=C(CSc1nc2scc(-c3ccc(F)cc3)c2c(=O)n1-c1ccc(F)cc1)NO` [986-55, 2-[3,5-Bis-(4-fluorophenyl)-4-oxo-3,4-dihydrothieno[2,3-d]pyrimidin-2-ylsulfanyl]-N-hydroxyacetamide], for which, in experiment [1], the IC50 is greater than 20 µM.
On the same count and under the same terms, with `NNC(=O)CSc1nc2scc(-c3ccccc3)c2c(=O)n1Cc1ccccc1` [986-14, (3-Benzyl-4-oxo-5-phenyl-3,4-dihydrothieno[2,3-d]pyrimidin-2-ylsulfanyl)acetic acid hydrazide] the figure was 2.3 µM.
`NNC(=O)CSc1nc2sc3c(c2c(=O)n1-c1cccc(F)c1)C(Cc1ccccc1)CCC3` (centres unmarked) [986-45, [5-Benzyl-3-(3-fluorophenyl)-4-oxo-3,4,5,6,7,8-hexahydrobenzo[4,5]thieno[2,3-d]pyrimidin-2-ylsulfanyl]acetic acid hydrazide] gave an IC50 in experiment [1] of 2.3 µM.
Turning to `NC(=O)CSc1nc2scc(-c3ccccc3F)c2c(=O)n1-c1cccc(F)c1` [986-53, 2-[3-(3-Fluorophenyl)-5-(2-fluorophenyl)-4-oxo-3,4-dihydrothieno[2,3-d]pyrimidin-2-ylsulfanyl]acetamide], in experiment [1], the IC50 was greater than 10 µM.
As for `NNC(=O)CSc1nc2sc(Cl)c(-c3ccccc3F)c2c(=O)n1-c1cccc(F)c1` [986-39, [6-Chloro-3-(3-fluorophenyl)-5-(2-fluorophenyl)-4-oxo-3,4-dihydrothieno[2,3-d]pyrimidin-2-ylsulfanyl]acetic acid hydrazide], the IC50 is 0.13 µM in experiment [2] (setting [3]) and less than 0.16 µM in experiment [2] (setting [4]). The “TGase 2 inhibitory activity, SAR comment in words (relative to parent compound)” value in experiment [2] is listed as “increased activity”.
Take `CNNC(=O)CSc1nc2scc(-c3ccc(F)cc3)c2c(=O)n1-c1ccc(F)cc1` [986-51, [3,5-Bis-(4-fluorophenyl)-4-oxo-3,4-dihydrothieno[2,3-d]pyrimidin-2-ylsulfanyl]acetic acid N′-methylhydrazide]: the IC50 in experiment [1] is greater than 20 µM.
Turning to `NNC(=O)CSc1nc2scc(-c3ccccc3O)c2c(=O)n1-c1cccc(F)c1` [986-34, [3-(3-Fluorophenyl)-5-(2-hydroxyphenyl)-4-oxo-3,4-dihydrothieno[2,3-d]pyrimidin-2-ylsulfanyl]acetic acid hydrazide], the IC50 in experiment [1] is 1.4 µM.
`CCOC(=O)CSc1nc2scc(-c3ccccc3)c2c(=O)n1-c1ccc(F)cc1` [986-58, [3-(4-Fluorophenyl)-4-oxo-5-phenyl-3,4-dihydrothieno[2,3-d]pyrimidin-2-ylsulfanyl]acetic acid ethyl ester] showed an IC50 in experiment [1] greater than 20 µM.
Take `NNC(=O)CSc1nc2scc(-c3cccc(F)c3)c2c(=O)n1-c1cccc(F)c1` [986-38, [3,5-Bis-(3-fluorophenyl)-4-oxo-3,4-dihydrothieno[2,3-d]pyrimidin-2-ylsulfanyl]acetic acid hydrazide]: the IC50 in experiment [2] (setting [3]) was 0.29 µM.
Take `NNC(=O)CSc1nc2sc3c(c2c(=O)n1-c1cccc(F)c1)CCNC3` [986-47, [3-(3-Fluorophenyl)-4-oxo-3,4,5,6,7,8-hexahydro-9-thia-1,3,7-triazafluoren-2-ylsulfanyl]acetic acid hydrazide]: the IC50 in experiment [2] (setting [3]) was found to be 7.1 µM.
On to `Cc1sc2nc(SCC(=O)NN)n(-c3cccc(F)c3)c(=O)c2c1-c1ccccc1F` [986-40, [3-(3-Fluorophenyl)-5-(2-fluorophenyl)-6-methyl-4-oxo-3,4-dihydrothieno[2,3-d]pyrimidin-2-ylsulfanyl]acetic acid hydrazide], for which the IC50 was 0.15 µM in experiment [2] (setting [3]) and less than 0.16 µM in experiment [2] (setting [4]).
`Cn1c(SCC(=O)NN)nc2scc(-c3ccccc3)c2c1=O` [986-10, (3-Methyl-4-oxo-5-phenyl-3,4-dihydrothieno[2,3-d]pyrimidin-2-ylsulfanyl)acetic acid hydrazide] gave a half-inhibitory concentration (IC50) in experiment [1] of 8.4 µM.
With `Cc1csc2nc(SCC(=O)NN)n(-c3ccc(F)cc3)c(=O)c12` [986-11, [3-(4-Fluorophenyl)-5-methyl-4-oxo-3,4-dihydrothieno[2,3-d]pyrimidin-2-ylsulfanyl]acetic acid hydrazide], in experiment [1], the midpoint of inhibition, the IC50, lay at 6.3 µM.
As to `CC(C)(C)OC(=O)N1CCc2c(sc3nc(SCC(=O)NN)n(-c4cccc(F)c4)c(=O)c23)C1` [986-46, 3-(3-Fluorophenyl)-2-hydrazinocarbonylmethylsulfanyl-4-oxo-3,5,6,8-tetrahydro-4H-9-thia-1,3,7-triazafluorene-7-carboxylic acid tert-butyl ester], in experiment [2] (setting [3]), the concentration for half-maximal inhibition (IC50) worked out at 1.1 µM.
On to `COc1ccccc1-c1csc2nc(SCC(=O)NN)n(-c3cccc(F)c3)c(=O)c12` [986-31, [3-(3-Fluorophenyl)-5-(2-methoxyphenyl)-4-oxo-3,4-dihydrothieno[2,3-d]pyrimidin-2-ylsulfanyl]acetic acid hydrazide], for which the figures for the half-maximal inhibitory concentration (IC50) in experiment [2] (setting [3]) and in experiment [2] (setting [4]) were 0.14 µM and less than 0.16 µM, respectively.
In the case of `COc1ccc(-c2csc3nc(SCC(=O)NN)n(-c4cccc(F)c4)c(=O)c23)cc1` [986-33, [3-(3-Fluorophenyl)-5-(4-methoxyphenyl)-4-oxo-3,4-dihydrothieno[2,3-d]pyrimidin-2-ylsulfanyl]acetic acid hydrazide], the half-inhibitory concentration (IC50) in experiment [2] (setting [3]) worked out at 0.28 µM.
As for `CN1CCc2c(sc3nc(SCC(=O)NN)n(-c4cccc(F)c4)c(=O)c23)C1` [986-48, [3-(3-Fluorophenyl)-7-methyl-4-oxo-3,4,5,6,7,8-hexahydro-9-thia-1,3,7-triazafluoren-2-ylsulfanyl]acetic acid hydrazide], the half-inhibitory concentration (IC50) in experiment [2] (setting [3]) is 0.53 µM.
For the molecule `NNC(=O)CNc1nc2scc(-c3ccccc3)c2c(=O)n1-c1ccccc1` [986-05, (4-Oxo-3,5-diphenyl-3,4-dihydrothieno[2,3-d]pyrimidin-2-ylamino)acetic acid hydrazide], the half-inhibitory concentration (IC50) in experiment [2] (setting [3]) came to 3.7 µM. For the same molecule, the “TGase 2 inhibitory activity, SAR comment in words (relative to parent compound)” value in experiment [2] is “decreased activity”.
`NNC(=O)CSc1nc2sc3c(c2c(=O)n1-c1cccc(F)c1)CCCC3` [986-42, [3-(3-Fluorophenyl)-4-oxo-3,4,5,6,7,8-hexahydrobenzo[4,5]thieno[2,3-d]pyrimidin-2-ylsulfanyl]acetic acid hydrazide]: the half-maximal inhibitory concentration (IC50) in experiment [2] (setting [3]) turned out to be 0.45 µM.
`NNC(=O)CSc1nc2scc(-c3ccccc3F)c2c(=O)n1-c1cccc(F)c1` [986-37, [3-(3-Fluorophenyl)-5-(2-fluorophenyl)-4-oxo-3,4-dihydrothieno[2,3-d]pyrimidin-2-ylsulfanyl]acetic acid hydrazide]: the half-maximal inhibitory concentration (IC50) is 0.14 µM in experiment [2] (setting [3]) and less than 0.16 µM in experiment [2] (setting [4]).
In the case of `NNC(=O)CSc1nc2ccc(-c3ccccc3)cc2c(=O)n1-c1cccc(F)c1` [986-04, [3-(3-Fluorophenyl)-4-oxo-6-phenyl-3,4-dihydroquinazolin-2-ylsulfanyl]acetic acid hydrazide], the IC50 in experiment [2] (setting [3]) was 1.5 µM. Further, in experiment [2], the “TGase 2 inhibitory activity, SAR comment in words (relative to parent compound)” value is “Activity was partly restored”.
On to `CC1CCCc2sc3nc(SCC(=O)NN)n(-c4cccc(F)c4)c(=O)c3c21` (centres unmarked) [986-43, [3-(3-Fluorophenyl)-5-methyl-4-oxo-3,4,5,6,7,8-hexahydrobenzo[4,5]thieno[2,3-d]pyrimidin-2-ylsulfanyl]acetic acid hydrazide], for which the IC50 in experiment [2] (setting [3]) worked out at 0.2 µM.

A word on the IC50: it is the midpoint of a concentration-inhibition curve.
